Test results published in patent publication US20260335299A1, “SUBSTITUTED OXOISOINDOLINYL PIPERIDINE-2,6-DIONE COMPOUND AS ANTICANCER AGENT” (BRISTOL-MYERS SQUIBB COMPANY, priority 2023, published 2026).

Columns and labels:
solid tumors = details: sometimes; patients with solid tumors / advanced malignancies; cited from earlier work
IKZF1 Ikaros [1] = biological target: T1, IKZF1 Ikaros (Homo sapiens, UniProt Q13422+Q96SW2); experiment: Jurkat Cellular Degradation Assay (Ikaros); type: cell-based; set-up: endogenous in cells; host or cells: Jurkat cells; details: Jurkat cells, 72 h; concentration reducing protein level by 50% compared to DMSO alone
T1 sequence (Q13422 whole entry): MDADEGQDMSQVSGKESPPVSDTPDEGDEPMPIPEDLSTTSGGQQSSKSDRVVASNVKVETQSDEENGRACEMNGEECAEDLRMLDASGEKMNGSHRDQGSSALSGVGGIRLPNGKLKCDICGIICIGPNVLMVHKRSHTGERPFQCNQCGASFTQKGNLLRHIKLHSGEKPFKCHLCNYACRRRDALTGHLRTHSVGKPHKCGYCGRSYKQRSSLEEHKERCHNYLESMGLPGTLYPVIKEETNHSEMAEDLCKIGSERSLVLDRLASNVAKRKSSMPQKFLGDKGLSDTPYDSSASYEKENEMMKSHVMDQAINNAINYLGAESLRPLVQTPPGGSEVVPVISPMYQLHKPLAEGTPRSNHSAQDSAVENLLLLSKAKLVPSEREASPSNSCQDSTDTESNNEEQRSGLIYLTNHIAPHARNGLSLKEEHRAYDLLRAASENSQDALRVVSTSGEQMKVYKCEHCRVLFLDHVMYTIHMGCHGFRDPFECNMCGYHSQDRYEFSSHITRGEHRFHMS
T1 sequence (Q96SW2 whole entry): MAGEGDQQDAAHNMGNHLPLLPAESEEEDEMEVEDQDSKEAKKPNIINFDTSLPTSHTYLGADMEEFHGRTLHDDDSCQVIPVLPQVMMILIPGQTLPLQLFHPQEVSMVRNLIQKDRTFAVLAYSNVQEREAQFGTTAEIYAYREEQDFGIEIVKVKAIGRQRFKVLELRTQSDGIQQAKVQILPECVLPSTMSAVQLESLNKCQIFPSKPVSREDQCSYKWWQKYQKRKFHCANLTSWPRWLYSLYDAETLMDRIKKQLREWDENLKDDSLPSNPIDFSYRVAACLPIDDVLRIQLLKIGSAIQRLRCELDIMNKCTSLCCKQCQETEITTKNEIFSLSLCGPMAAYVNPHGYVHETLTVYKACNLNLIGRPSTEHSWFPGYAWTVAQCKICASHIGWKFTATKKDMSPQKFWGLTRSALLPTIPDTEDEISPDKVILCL
T1 sequence (Q16531 whole entry partner): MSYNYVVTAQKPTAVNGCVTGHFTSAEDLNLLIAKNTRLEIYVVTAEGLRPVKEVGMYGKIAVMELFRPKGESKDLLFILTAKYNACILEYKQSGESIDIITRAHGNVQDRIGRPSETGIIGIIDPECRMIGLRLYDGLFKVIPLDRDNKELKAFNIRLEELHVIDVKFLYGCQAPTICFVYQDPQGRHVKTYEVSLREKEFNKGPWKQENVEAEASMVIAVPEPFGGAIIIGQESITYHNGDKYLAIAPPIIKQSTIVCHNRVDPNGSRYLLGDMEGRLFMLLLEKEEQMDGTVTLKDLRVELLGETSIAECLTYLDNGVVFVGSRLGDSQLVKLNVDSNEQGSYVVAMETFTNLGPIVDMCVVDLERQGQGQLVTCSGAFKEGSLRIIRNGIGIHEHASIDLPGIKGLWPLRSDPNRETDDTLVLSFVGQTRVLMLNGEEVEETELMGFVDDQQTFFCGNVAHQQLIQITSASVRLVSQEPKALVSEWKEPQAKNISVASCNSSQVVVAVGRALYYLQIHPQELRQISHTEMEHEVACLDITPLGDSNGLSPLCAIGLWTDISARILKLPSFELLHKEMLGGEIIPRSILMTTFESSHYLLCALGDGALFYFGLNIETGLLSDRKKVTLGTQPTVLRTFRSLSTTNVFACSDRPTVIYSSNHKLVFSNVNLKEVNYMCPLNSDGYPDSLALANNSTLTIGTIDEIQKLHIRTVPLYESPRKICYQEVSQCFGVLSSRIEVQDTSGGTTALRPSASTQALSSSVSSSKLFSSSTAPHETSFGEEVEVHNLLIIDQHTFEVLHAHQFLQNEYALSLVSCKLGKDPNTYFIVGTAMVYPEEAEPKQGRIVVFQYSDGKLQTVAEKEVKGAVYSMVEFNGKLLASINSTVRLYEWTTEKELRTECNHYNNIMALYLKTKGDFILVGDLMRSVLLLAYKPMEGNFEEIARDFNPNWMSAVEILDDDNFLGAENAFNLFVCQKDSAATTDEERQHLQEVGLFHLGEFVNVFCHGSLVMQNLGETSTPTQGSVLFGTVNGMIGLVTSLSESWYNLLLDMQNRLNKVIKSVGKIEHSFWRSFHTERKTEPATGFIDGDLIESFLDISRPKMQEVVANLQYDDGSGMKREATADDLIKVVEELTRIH
Procedure: (§1) Jurkat cells were plated at 80,000 cells/well in 40 μL RPMI+10% FBS in a 384-well cell culture plate prior to using acoustic dispensing technology for adding a compound of interest. Cell cultures were incubated for 72 h at 37° C. and 5% CO2. In order to facilitate analysis, cell cultures were spun down at 200 rpm for 5 min and the supernatant was discarded. After shaking the plate to dislodge the cell pellet, cells were resuspended in 50 μL of Fixation Buffer (eBioscience FoxP3 buffer set 00-5523-00) for 60 min at room temperature. After centrifuging and discarding the supernatant, cells were permeabilized with 50 μL of Permeabilization buffer (eBioscience FoxP3 buffer set 00-5523-00) for 10 min at room temperature. Following permeabilization, cells were spun down and the supernatant was replaced with 20 μL fluorescently labelled antibodies against Helios, Ikaros and Aiolos or corresponding Isotype controls in 1× Permeabilization buffer (Ikaros-Alexa488 [Biolegend, Cat #368408, 1:50], Helios-PE [CST, Cat #29360, 1:50], Aiolos-Alexa647 [Biolegend, Cat #371106 Biolegend, 1:25]) and staining reactions were incubated for 1 h at room temperature while protected from light. Subsequently, 30 μL of 1× Permeabilization buffer was added prior to centrifuging the cells and discarding the supernatant. Stained cells were resuspended in 25 μL of flow cytometry staining buffer [PBS+0.2% bovine serum albumin (BSA)] and analyzed using an Intellicyt Ique Plus flow cytometer.
(§2) Table A-1 lists the maximum observed degradation of the IKZF1 protein, IKZF2 protein, and IKZF3 protein as measured in the Jurkat Cellular Degradation assay. The results in Table A-I were rounded to two digits. In the Jurkat Cellular Degradation assay, a value of 100% indicated no detectable protein remaining or complete degradation of the protein; and a value of 0% indicated no detectable degradation of the protein by the test compound.

IKZF1 Ikaros [2] = biological target: T1, IKZF1 Ikaros; experiment: Human CD8+ T Cell Reprogramming (Degradation) Assay (Ikaros); type: cell-based; set-up: Cryopreserved healthy donor human peripheral blood mononuclear cells (PBMC); endogenous in cells; host or cells: CD8+ T cells within healthy donor human PBMC; details: CD8+ T cells, human PBMC, 24 h; concentration reducing protein level by 50% compared to DMSO alone
Procedure: (§3) Cryopreserved healthy donor human peripheral blood mononuclear cells (PBMC) from healthy donors were thawed and seeded at 500,000 cells/well of 96-well round bottom plates in RPMI 1640 media (Gibco) supplemented with 10% FBS, Pen/Strep (Gibco), MEM-NEAA (Gibco), and sodium pyruvate (Gibco). Cells were treated with titrated doses of compound for 24 hours at 37° C., 5% CO2 before analyzing by flow cytometry.
(§4) For flow cytometry staining, cells were washed twice with flow cytometry staining buffer (Thermo Fisher) and incubated in Human Tru-stain Fc block (Biolegend) for 10 minutes before adding eFluor780 viability dye (Thermo Fisher) and surface marker antibody cocktail containing LD-eFluor780, CD3-BUV-395, CD4-BUV805, CD8-FITC, and CD25-BV605 for 30 minutes at 4° C. Cells were then fixed and permeabilized by incubation with permeabilization buffer (eBioscience FoxP3 buffer set 00-5523-00) for 30 minutes at 4° C. as per the kit manufacturer's instructions. Cells were washed twice with the Perm/Wash buffer supplied in the kit as per the manufacturer's instructions and incubated overnight at 4° C. with an intracellular antibody cocktail comprised of antibodies specific for the transcription factors (i.e., Foxp3-BV421, HELIOS-PE-Cy7, EOS-PE, IKAROS-PECF594, AIOLOS-AF647). Cells were washed twice with Perm/Wash buffer and resuspended in flow cytometry staining buffer (Thermo Fisher) prior to acquisition. Sample acquisition and analysis was performed using a BD LSRFortessa (BD Biosciences) flow cytometer. Single-stain controls for each fluorochrome were prepared using UltraComp eBead Compensation Beads (Thermo Fisher). Data were analyzed using FlowJo version 10 and GraphPad Prism Software.
as §2, with “D-1” for “A-1”, “protein” for “protein, IKZF2 protein,”, “Human CD8^+ T Cell Reprogramming” for “Jurkat Cellular Degradation”, “D-1” for “A-I”

IKZF1 Ikaros [3] = biological target: T1, IKZF1 Ikaros; experiment: Human Regulatory T Cell Degradation Assay (Ikaros); type: cell-based; details: human regulatory T cells, 20 h; concentration reducing protein level by 50% compared to DMSO alone
Procedure: Cryopreserved human regulatory T cells were thawed in RPMI+10% FBS+20 ng/mL IL-2. After being spun at 1200 rpm for 5 mins, the cells were resuspended in RPMI+10% FBS+20 ng/ml and rested at 37° C. with 5% CO2 for 3 hours. The cells were then plated at 40,000 cells/well in 40 μL RPMI+10% FBS+20 ng/mL human IL-2 in a 384 well cell culture plate prior to using acoustic dispensing technology (ECHO 555) for adding compounds of interest. Cell cultures were incubated for 20 hours at 37° C. and 5% CO2. In order to facilitate analysis, cell cultures were spun down at 1200 rpm for 5 minutes and the supernatant was discarded using an EL406 plate washer. After washing three times with […] PBS, cell pellets were resuspended in 50 μL of […] viability staining solution (Life Technologies, Cat #L34975) and incubated for 30 minutes on ice protected from light. Cells were washed three times with 70 μL PBS+0.5% BSA using an EL406 plate washer. After shaking the plate to dislodge the cell pellet, cells were resuspended in 50 μL of Fixation Buffer (eBioScience FoxP3 buffer set 00-5523-00) for 60 minutes at room temperature. After centrifuging and discarding the supernatant, cells were permeabilized with 50 μL of permeabilization buffer (eBioScience FoxP3 buffer set 00-5523-00) for 10 minutes at room temperature. Following permeabilization, cells were spun down and the supernatant was replaced with 30 μL fluorescently labelled antibodies against the intracellular targets Helios (Helios-APC [BioLegend, Cat #137222, 1:50])]), Aiolos, and Ikaros 1× Permeabilization buffer and staining reactions were incubated for 1 hour at room temperature; protected from light. Subsequently, […] Permeabilization buffer was added prior to centrifuging the cells and discarding the supernatant. Stained cells were resuspended in 30 μL of flow cytometry staining buffer (PBS+0.5% BSA) and analyzed using an Intellicyt Ique Plus flow cytometer.
as §2, with “B-1” for “A-1”, “protein and” for “protein,”, “IKZF2” for “IKZF2 protein, and IKZF3”, “Human Regulatory T Cell” for “Jurkat Cellular”, “B-1” for “A-I”

IKZF3 Aiolos [4] = biological target: T2, IKZF3 Aiolos (Homo sapiens, UniProt Q96SW2+Q9UKT9); experiment: Jurkat Cellular Degradation Assay (Aiolos); type: cell-based; set-up: endogenous in cells; host or cells: Jurkat cells; details: Jurkat cells, 72 h; concentration reducing protein level by 50% compared to DMSO alone
T2 sequence (Q9UKT9 whole entry): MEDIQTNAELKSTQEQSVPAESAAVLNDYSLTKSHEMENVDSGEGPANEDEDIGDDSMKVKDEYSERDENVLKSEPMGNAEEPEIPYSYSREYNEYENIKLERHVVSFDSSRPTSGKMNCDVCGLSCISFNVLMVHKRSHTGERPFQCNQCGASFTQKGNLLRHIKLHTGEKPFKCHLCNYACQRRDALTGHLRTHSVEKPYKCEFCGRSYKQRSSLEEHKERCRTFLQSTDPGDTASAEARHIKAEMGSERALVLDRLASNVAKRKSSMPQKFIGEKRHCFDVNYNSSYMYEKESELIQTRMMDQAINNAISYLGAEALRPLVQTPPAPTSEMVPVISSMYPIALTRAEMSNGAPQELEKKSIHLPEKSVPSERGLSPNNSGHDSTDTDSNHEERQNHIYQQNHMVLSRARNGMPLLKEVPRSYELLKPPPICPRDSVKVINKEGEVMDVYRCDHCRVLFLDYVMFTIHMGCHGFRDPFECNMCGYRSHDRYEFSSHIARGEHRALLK
T2 sequence (Q96SW2 whole entry): as the sequence (Q96SW2 whole entry) above
T2 sequence (Q16531 whole entry partner): as the sequence (Q16531 whole entry partner) above
Procedure: as §1, §2

IKZF3 Aiolos [5] = biological target: T2, IKZF3 Aiolos; experiment: Human CD8+ T Cell Reprogramming (Degradation) Assay (Aiolos); type: cell-based; set-up: Cryopreserved healthy donor human peripheral blood mononuclear cells (PBMC); endogenous in cells; host or cells: CD8+ T cells within healthy donor human PBMC; details: CD8+ T cells, human PBMC, 24 h; concentration reducing protein level by 50% compared to DMSO alone
Procedure: as §3, §4
as §2, with “D-1” for “A-1”, “protein” for “protein, IKZF2 protein,”, “Human CD8^+ T Cell Reprogramming” for “Jurkat Cellular Degradation”, “D-1” for “A-I”

Row | DC50 (IKZF1 Ikaros [1]) | DC50 (IKZF1 Ikaros [2]) | DC50 (IKZF1 Ikaros [3]) | DC50 (IKZF3 Aiolos [4]) | DC50 (IKZF3 Aiolos [5]) | Compound | clinical response in patients with solid tumors (solid tumors)
1 | – | – | – | – | – | Cc1nc2cccc(N)c2c(=O)n1C1CCC(=O)NC1=O (stereo not shown) [avadomide] | modest responses of stable disease
2 | – | – | – | – | – | Nc1cccc2c1C(=O)N(C1CCC(=O)NC1=O)C2=O (stereo not shown) [pomalidomide] | modest responses of stable disease
3 | > 10 µM | > 1 µM | > 10 µM | > 10 µM | > 1 µM | O=C1CCC(N2Cc3c(ccc(-c4cc(CN5CC(c6ccccc6)C5)ccn4)c3F)C2=O)C(=O)N1 (stereo not shown) [Comparative Compound A, 3-(4-fluoro-1-oxo-5-(4-((3-phenylazetidin-1-yl)methyl)pyridin-2-yl)isoindolin-2-yl) piperidine-2,6-dione, reference compound] | –
4 | – | – | – | – | – | Nc1cccc2c1CN(C1CCC(=O)NC1=O)C2=O (stereo not shown) [lenalidomide] | modest responses of stable disease
5 | > 10 µM | > 1 µM | > 10 µM | > 10 µM | > 1 µM | Nc1nc(-c2ccc3c(c2)CN(C2CCC(=O)NC2=O)C3=O)ccc1CN1CC2(CCC2)C1 (stereo not shown) [Comparative Compound B, 3-(5-(5-((2-azaspiro[3.3]heptan-2-yl)methyl)-6-aminopyridin-2-yl)-1-oxoisoindolin-2-yl) piperidine-2,6-dione, reference compound] | –
